Patent EP0018019A1, “Antimicrobial water-soluble compound which contains a rare earth metal cation, its application in oral compositions and method for controlling microorganisms therewith” (priority 1979, dated 1980)
Like-named read-outs stand apart in the source and are kept apart here.

How the values were obtained:
[1] = Stain test on pellicle-coated plastic artificial molars (coffee/tea); conditions: for Stain Grade: 0-8 scale (0 no stain, 8 continuous dark brown stain); for promotion of stains: demonstrated by the stain test
Procedure: Plastic artificial molars were mounted in the caps of disposable plastic vials using dental cement. A thin, organic pellicle was developed on the teeth by exposure for about 17 hours to pooled human saliva which has been centrifuged for 2 minutes at 500X gravity to remove food and similar debris. The coated teeth were serially exposed for 5 minutes to a solution of the test material, a distilled water rinse, for 5 minutes to a solution of instant coffee and tea (20 grams of commercial instant coffee and 2 grams of commercial instant tea in 1 liter of distilled water), a distilled water rinse, the test solution for 5 minutes, a distilled water rinse, the coffee/tea solution for 5 minutes, and a final distilled water rinse. The teeth were then graded for degree of staining on a 0-8 scale (where 0 was no stain and 8 was continuous dark brown stain) by comparison with a photographic standard.

E. coli [2] = assay: Minimum Bactericidal Concentration test; type: cell-based; conditions: 10-minute contact at 37°C
Procedure: (§1) The data are from standard tests for measuring Minimum Bactericidal Concentrations (using a 10-minute contact with the test agent at 37°C; representing at least 3 log unit reduction in viable cell count).

S. aureus = assay: Minimum Bactericidal Concentration test; type: cell-based; conditions: 10-minute contact at 37°C
Procedure: as §1

E. coli [3] = type: cell-based; conditions: for Log Survivors/ml: approximately 10^7 E. coli/ml, 10 min. at 37°C; for effectiveness as component of the antimicrobial compositions: other polyvalent metals in place of the rare earth, tested in the foregoing manner
Staphylococcus = conditions: cited from earlier work
molds = conditions: cited from earlier work
[4] = Water solubility / precipitation from solution; type: physicochemical; conditions: in combination with a rare earth
Excerpt: Moreover, the compounds herein or their rare earth metal components precipitate from solution at pH's above about 8. See: Moeller and Kremers, Chem. Rev. 37:114 (1945). Moreover, highly acid (below about pH 4) solutions of the surfactants herein have antimicrobial properties in their own right. Of course, compositions intended for oral use should have a pH above about 4 to avoid damage to dental enamel. With certain species of microorganisms, especially with Pityrosporum ovale which is the causative microorganism for dandruff, the compositions herein are optimally active in the pH range of 4.0-4.5.
The present invention specifically encompasses the more water-soluble, antimicrobially-active rare earth/alkyl benzene sulfonate compositions.

[5] = Antimicrobial activity of rare earth/surfactant combinations; type: cell-based; conditions: in combination with a rare earth
Procedure: as §1

Bacillus subtilis = assay: Minimum Bactericidal Concentration of LaLAS; type: cell-based; conditions: Gram-positive
Procedure: as §1

E. coli ATCC 11775 = assay: Minimum Bactericidal Concentration of LaLAS; type: cell-based; conditions: Gram-negative
Procedure: as §1

[6] = tested on: Kleb. pneumoniae ATCC 4352; assay: Minimum Bactericidal Concentration of LaLAS; type: cell-based; conditions: Gram-negative
Procedure: as §1

[7] = tested on: Micrococcus luteus ATCC 4698; assay: Minimum Bactericidal Concentration of LaLAS; type: cell-based; conditions: Gram-positive
Procedure: as §1

Proteus vulgaris = assay: Minimum Bactericidal Concentration of LaLAS; type: cell-based; conditions: Gram-negative
Procedure: as §1

[8] = tested on: Ps. aeruginosa ATCC 15442; assay: Minimum Bactericidal Concentration of LaLAS; type: cell-based; conditions: Gram-negative
Procedure: as §1

Salmonella typhimurium = assay: Minimum Bactericidal Concentration of LaLAS; type: cell-based; conditions: Gram-negative
Procedure: as §1

Staph. aureus ATCC 6538 = assay: Minimum Bactericidal Concentration of LaLAS; type: cell-based; conditions: Gram-positive
Procedure: as §1

[9] = tested on: Staph. epidermidis ATCC 14990; assay: Minimum Bactericidal Concentration of LaLAS; type: cell-based; conditions: Gram-positive
Procedure: as §1

Strep. faecalis = assay: Minimum Bactericidal Concentration of LaLAS; type: cell-based; conditions: Gram-positive
Procedure: as §1

dental plaque = assay: In vitro growth of dental plaque on extracted human teeth in growth chambers; type: cell-based; conditions: plaque-inhibiting solutions for one minute each morning and afternoon, four days; compared with water-treated controls
Excerpt: The efficacy of the antimicrobial composition LaLAS was compared with the known anti-plaque agent chlorhexidine digluconate for the prevention of dental plaque, as follows: • Lanthanum 4-(1'-methylnonyl)benzenesulfonate (LaLAS) was used in this test to reduce the in vitro growth of dental plaque on teeth. This was done using a system of glass growth chambers containing clean, extracted, sound human teeth mounted in stainless steel brackets. After sterilization in an autoclave, the growth chambers were inoculated with homogenized human plaque scrapings and serially treated with Trypticase® soy broth, sucrose, artificial saliva, and solutions of plaque-inhibiting materials for four days: The plaque-inhibiting solutions were introduced for one minute each morning and afternoon. After this treatment, the teeth were withdrawn from the growth chambers, stained with an alcoholic solution of basic fuchsin to disclose any plaque that had formed and, after randomization, graded for percent plaque coverage by three trained judges. Percent plaque reduction was calculated by comparison with water-treated controls. [formula]

[10] = 3 molecular equivalents of Na surfactant to 1 molecular equivalent of LaCl3
[11] = Rare Earth Cation 0.01 mM + 2-C10LAS 0.03 mM
[12] = Rare Earth Cation 0.05 mM + 2-C10LAS 0.15 mM
[13] = Rare Earth Cation 0.1 mM + 2-C10LAS 0.3 mM
[14] = Rare Earth Cation 0.1 mM alone, 2-C10LAS 0 mM
[15] = inorganic lanthanum salt alone, at least 3 log unit reduction in viable cell count

CCCCCCCCCCCCCCCC[n+]1ccccc1 [Cetylpyridinium chloride]
Stain Grade ([1]; 2000 ppm test solution): 2.7

[H]/N=C(\N/C(=N/[H])NCCCCCCNC(=N)NC(=N)Nc1ccc(Cl)cc1)Nc1ccc(Cl)cc1 [Chlorhexidine]
Stain Grade ([1]; 2000 ppm test solution): 3.2

CCCCCCCCC(C)c1ccc(S(=O)(=O)O)cc1 (stereo not shown) [Compound 2-C10LAS, 4-(l'-methylnonyl)benzenesulfonate]
Minimum Bactericidal Concentration (ppm) E. coli Na salt + LaCl3 (E. coli [2]; [10]): 32 ppm
MBC (E. coli [2]; Escherichia coli, 10 min, surfactant as Na salt alone, read-out: Minimum Bactericidal Concentration (ppm) E. coli as Na salt): > 2000 µg/mL
Minimum Bactericidal Concentration (ppm) S. aureus Na salt + LaCl3 (S. aureus; [10]): 32 ppm
MBC (S. aureus; Staphylococcus aureus, 10 min, surfactant as Na salt alone, read-out: Minimum Bactericidal Concentration (ppm) S. aureus as Na salt): 2000 µg/mL
Log Survivors/ml (E. coli [3]; Rare Earth Cation 0 mM, 2-C10LAS 0.3 mM alone): 6

[Cl][Dy]([Cl])[Cl] [DyCl3]
Log Survivors/ml (E. coli [3]; [11]): 0
Log Survivors/ml (E. coli [3]; [12]): 0
Log Survivors/ml (E. coli [3]; [13]): 0
Log Survivors/ml (E. coli [3]; [14]): 3

[Cl][La]([Cl])[Cl] [LaCl3]
Log Survivors/ml (E. coli [3]; [11]): 0
Log Survivors/ml (E. coli [3]; [12]): 0
Log Survivors/ml (E. coli [3]; [13]): 0
Log Survivors/ml (E. coli [3]; [14]): 5

O.O.O.O.O.O.[Cl-].[Cl-].[Cl-].[La+3] [LaCl3·6H2O, lanthanum chloride hexahydrate]
Minimum Bactericidal Concentration (E. coli [2]; [15]): >3500 ppm
Minimum Bactericidal Concentration (S. aureus; [15]): >3500 ppm

[Cl][Nd]([Cl])[Cl] [NdCl3]
Log Survivors/ml (E. coli [3]; [11]): 1
Log Survivors/ml (E. coli [3]; [12]): 0
Log Survivors/ml (E. coli [3]; [13]): 0
Log Survivors/ml (E. coli [3]; [14]): 3

[Cl][Pr]([Cl])[Cl] [PrCl3]
Log Survivors/ml (E. coli [3]; [11]): 0
Log Survivors/ml (E. coli [3]; [12]): 0
Log Survivors/ml (E. coli [3]; [13]): 0
Log Survivors/ml (E. coli [3]; [14]): 3

[Cl][Yb]([Cl])[Cl] [YbCl3]
Log Survivors/ml (E. coli [3]; [11]): 0
Log Survivors/ml (E. coli [3]; [12]): 0
Log Survivors/ml (E. coli [3]; [13]): 0
Log Survivors/ml (E. coli [3]; [14]): 2

[Ca] [calcium]
effectiveness as component of the antimicrobial compositions (E. coli [3]): ineffective

O=[N+]([O-])[O-].O=[N+]([O-])[O-].O=[N+]([O-])[O-].[Ce+3] [cerium nitrate]
concentration that inhibits Staphylococcus (Staphylococcus): 1000 ppm
concentration that inhibits molds (molds): 1000 ppm

[H]/N=C(\N/C(=N/[H])NCCCCCCNC(=N)NC(=N)Nc1ccc(Cl)cc1)Nc1ccc(Cl)cc1 [chlorhexidine digluconate]
promotion of stains [1]: undesirably promotes stains

[Fe] [iron]
effectiveness as component of the antimicrobial compositions (E. coli [3]): ineffective

[Mg] [magnesium]
effectiveness as component of the antimicrobial compositions (E. coli [3]): ineffective

CCCCCCCCCCCCc1ccc(S(=O)(=O)O)cc1 [n-C12LAS]
water solubility [4]: rather water-insoluble
antimicrobial activity [5]: rather poor

aluminum
effectiveness as component of the antimicrobial compositions (E. coli [3]): ineffective

lanthanum 4-(l'-methylnonyl)benzenesulfonate [LaLAS]
Minimum Bactericidal Conc. of LaLAS (Bacillus subtilis): 500 ppm
Minimum Bactericidal Conc. of LaLAS (E. coli ATCC 11775): 32 ppm
Minimum Bactericidal Conc. of LaLAS [6]: 125 ppm
Minimum Bactericidal Conc. of LaLAS [7]: 125 ppm
Minimum Bactericidal Conc. of LaLAS (Proteus vulgaris): 32 ppm
Minimum Bactericidal Conc. of LaLAS [8]: 16 ppm
Minimum Bactericidal Conc. of LaLAS (Salmonella typhimurium): 125 ppm
Minimum Bactericidal Conc. of LaLAS (Staph. aureus ATCC 6538): 32 ppm
Minimum Bactericidal Conc. of LaLAS [9]: 32 ppm
Minimum Bactericidal Conc. of LaLAS (Strep. faecalis): 32 ppm
anti-plaque efficacy (dental plaque): equivalent to chlorhexidine digluconate
Stain Grade ([1]; 2000 ppm in 20% EtOH): 0
Stain Grade ([1]; 2000 ppm test solution): 0.1
promotion of stains [1]: does not
